# Test results reported in ChEMBL document CHEMBL1131118, “Inhibition of monoamine oxidase-B by condensed pyridazines and pyrimidines: effects of lipophilicity and structure-activity relationships” (J Med Chem, 1998).
# Key:
# [1] = biological target: T1, Amine oxidase [flavin-containing] B (Rattus norvegicus, UniProt P19643); test: Inhibitory activity against Monoamine oxidase B from rat brain mitochondria at 50 uM
# T1 sequence (P19643 whole entry): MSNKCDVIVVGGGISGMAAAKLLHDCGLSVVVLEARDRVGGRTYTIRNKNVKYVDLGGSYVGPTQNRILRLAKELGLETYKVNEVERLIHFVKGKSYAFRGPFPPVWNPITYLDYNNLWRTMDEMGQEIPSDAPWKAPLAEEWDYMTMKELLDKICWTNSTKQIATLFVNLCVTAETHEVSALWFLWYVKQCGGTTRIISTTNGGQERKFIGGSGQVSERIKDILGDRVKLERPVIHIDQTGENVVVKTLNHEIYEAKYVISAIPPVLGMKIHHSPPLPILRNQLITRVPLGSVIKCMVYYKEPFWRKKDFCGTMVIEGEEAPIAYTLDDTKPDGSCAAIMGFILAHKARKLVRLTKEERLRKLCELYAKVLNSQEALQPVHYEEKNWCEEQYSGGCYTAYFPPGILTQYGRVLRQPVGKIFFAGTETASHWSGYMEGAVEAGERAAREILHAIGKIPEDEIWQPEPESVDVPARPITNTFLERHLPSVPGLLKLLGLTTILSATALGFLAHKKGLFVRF
# [2] = biological target: T2, Amine oxidase [flavin-containing] A (Rattus norvegicus, UniProt P21396); test: Inhibitory activity against Monoamine oxidase A from rat brain mitochondria at 50 uM
# T2 sequence (P21396 whole entry): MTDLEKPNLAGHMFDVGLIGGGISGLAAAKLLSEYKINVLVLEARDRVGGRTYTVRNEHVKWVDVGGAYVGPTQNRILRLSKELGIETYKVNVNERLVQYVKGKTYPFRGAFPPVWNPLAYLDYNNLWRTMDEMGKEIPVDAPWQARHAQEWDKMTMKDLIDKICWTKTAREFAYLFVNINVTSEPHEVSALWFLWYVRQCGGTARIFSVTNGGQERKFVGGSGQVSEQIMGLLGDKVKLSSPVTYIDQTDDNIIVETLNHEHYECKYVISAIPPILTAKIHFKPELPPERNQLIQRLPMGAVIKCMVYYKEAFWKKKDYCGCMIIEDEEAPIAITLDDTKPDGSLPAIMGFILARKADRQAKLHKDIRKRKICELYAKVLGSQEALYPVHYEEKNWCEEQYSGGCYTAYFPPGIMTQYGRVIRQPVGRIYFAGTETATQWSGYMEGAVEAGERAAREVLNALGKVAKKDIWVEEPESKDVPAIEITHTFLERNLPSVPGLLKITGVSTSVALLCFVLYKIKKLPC
# [3] = Partition coefficient (logP); conditions: octanol/water
# [4] = biological target: T1, Amine oxidase [flavin-containing] B; test: Inhibitory activity against Monoamine oxidase B from rat brain mitochondria
# [5] = Partition coefficient (logP) (cyclohexane); conditions: octanol/water
# [6] = biological target: T2, Amine oxidase [flavin-containing] A; test: Inhibitory activity against Monoamine oxidase A from rat brain mitochondria at 100 uM
# [7] = biological target: T1, Amine oxidase [flavin-containing] B; test: Inhibitory activity against Monoamine oxidase B from rat brain mitochondria at 100 uM
# [8] = biological target: T1, Amine oxidase [flavin-containing] B; test: Inhibitory activity against Monoamine oxidase B from rat brain mitochondria at 5 uM
# [9] = biological target: T2, Amine oxidase [flavin-containing] A; test: Inhibitory activity against Monoamine oxidase A from rat brain mitochondria at 5 uM
# [10] = biological target: T2, Amine oxidase [flavin-containing] A; test: Inhibitory activity against Monoamine oxidase A from rat brain mitochondria
# [11] = biological target: T1, Amine oxidase [flavin-containing] B
# Description: Inhibitory activity against Monoamine oxidase B from rat brain mitochondria at 125 uM
# [12] = biological target: T1, Amine oxidase [flavin-containing] B; test: Inhibitory activity against Monoamine oxidase B from rat brain mitochondria at 10 uM
# [13] = biological target: T1, Amine oxidase [flavin-containing] B; test: Inhibitory activity against Monoamine oxidase B
# [14] = biological target: T2, Amine oxidase [flavin-containing] A
# Description: Inhibitory activity against Monoamine oxidase A from rat brain mitochondria at 25 uM
logP [3],logP [5],SMILES,also measured
> 3,1.66,O=C1c2ccccc2-c2nnc(-c3cccc([N+](=O)[O-])c3)cc21,IC50 [4]: 0.631 µM
> 3,2.34,O=C1c2ccccc2-c2nnc(-c3ccc([N+](=O)[O-])cc3)cc21,–
> 3,2.51,COc1ccc(-c2cc3c(nn2)-c2ccccc2C3=O)cc1,–
> 3,2.83,COc1cccc(-c2cc3c(nn2)-c2ccccc2C3=O)c1,–
1.56,-2.22,O=c1[nH]c(=O)c2cc(-c3ccccc3)nnc2[nH]1,IC50 [10]: 16.4 µM; inhibition at 125 µM [11]: 32%
2.88,0.13,O=C1c2ccccc2-c2nnc(-c3ccc(O)cc3)cc21,–
2.21,0.7,O=C1c2ccccc2-c2nnc(C(F)(F)F)cc21,–
> 3,2.56,O=C1c2ccccc2-c2nnc(-c3ccc(F)cc3)cc21,–
2.05,0.6,O=C1CCCc2nnc(-c3ccccc3)cc21,IC50 [13]: 74.1 µM; IC50 [4]: 74.8 µM; IC50 [10]: 59.1 µM
> 3,2.34,O=C1c2ccccc2-c2nnc(-c3ccccc3)cc21,inhibition at 25 µM [14]: 0%

# Further lines, the molecule ahead of its results:
SMILES,logP [3],logP [5],also measured
c1ccc(-c2cc3c(nn2)CCC3)cc1,–,–,inhibition at 50 µM [1]: 12%; inhibition at 50 µM [2]: 44%
Cc1c(-c2ccccc2)nnc2c1C(=O)c1ccccc1-2,> 3,2.16,–
O=C1c2ccccc2-c2nnc(-c3ccccc3[N+](=O)[O-])cc21,2.64,1.05,–
O=C1c2ccccc2-c2nnccc21,1.22,-0.29,–
COc1ccccc1-c1cc2c(nn1)-c1ccccc1C2=O,> 3,2.26,–
O=C(c1ccccc1)c1ccnnc1,1.09,-0.45,inhibition at 100 µM [6]: 18%; inhibition at 100 µM [7]: 29%
c1ccc(-c2cc3[nH]c4ccccc4c3nn2)cc1,–,–,inhibition at 5 µM [8]: 0%; inhibition at 5 µM [9]: 0%
O=C1c2ccccc2-c2nnc(-c3ccccc3O)cc21,3.15,2.55,–
O=C1c2ccccc2-c2nncc(-c3ccccc3)c21,2.8,1.4,–
O=C1c2ccccc2-c2nnc(-c3ccccc3F)cc21,> 3,2.07,–
O=C1c2ccccc2-c2cnc(-c3ccccc3)nc21,–,–,IC50 [4]: 11.6 µM; IC50 [10]: 2.37 µM
O=C1c2ccccc2-c2nc(-c3ccccc3)ncc21,> 3,3.15,IC50 [4]: 11.5 µM; IC50 [10]: 8.39 µM; inhibition at 10 µM [12]: 28%
O=c1[nH]c(=O)c2cc(-c3ccc(C(F)(F)F)cc3)nnc2[nH]1,–,–,inhibition at 5 µM [8]: 12.5%; inhibition at 5 µM [9]: 15%
Cc1cc2c(nn1)-c1ccccc1C2=O,1.58,-0.04,–
